Assay results reported in patent US20080200403A1, “9A-Carbamoyl and Thiocarbamoyl Azalides with Anti-Inflammatory Activity” (GLAXOSMITHKLINE, priority 2005, published 2008).
Read-outs that look alike come from different tables or passages of the source.

Assays:
TNF-α = test: Inhibition of TNF-α production by stimulated human peripheral blood leukocytes in vitro; format: cell-based; details: Homo sapiens, Leukocyte, PBL, read-out: Percentage of inhibition of TNF-α production; for inhibition at 10 µM: compound 10 μM; for inhibition at 50 µM: compound 50 μM
Experimental: (§1) Test substances used in in vitro experiments were dissolved in dimethyl sulfoxide (DMSO) (Kemika, Croatia) at concentrations of 50 mM and 10 mM, and were further diluted to final concentrations of 50 μM and 10 μM in 1 mL Dulbecco's modified Eagle medium (DMEM) supplemented with 1% heat inactivated fetal bovine serum (FBS), 1% L-glutamine, 50 U/ml penicillin, 50 μg/ml streptomycin and 2.5 μg/mL Fungizone (amphotericin B). Media and all media supplements were purchased from Gibco, Australia, except the FBS was purchased from Sigma, USA.
(§2) Peripheral blood leukocytes (PBL) were obtained from venous blood of healthy volunteers by sedimentation on 2% dextran T-500 (Amersham Biosciences, USA) and subsequent centrifugations of leukocyte rich plasma.
(§3) Peripheral blood leukocytes (PBL), isolated as described above, were seeded in a 48-well plate at a concentration of 3 to 5×10^6 cell per well in culture medium consisting of RPMI 1640 medium (Institute of Immunology, Croatia) supplemented with 10% heat-inactivated fetal calf serum (FCS, Biowhittaker, USA), 100 U/ml penicillin (Gibco, Australia), 100 μg/ml streptomycin (Gibco, Australia) and 2 mM L-glutamine (Gibco, Australia), and preincubated with the test compounds for 2 h at 37° C., in an atmosphere of 5% CO2, and 90% humidity. Then, stimuli (Sigma, USA) were added to a final concentration of 2 μg/mL lipopolysaccharide (LPS), 1 μg/mL phorbol 12-myristate 13-acetate (PMA) or 120 μg/mL zymosan. Samples were incubated overnight under conditions described above. At the end of incubation, the supernatants were transferred to eppendorf tubes and centrifuged for 10 min at 1500×g. Concentrations of human TNF-α, IL-1β, IL-6 and IL-8 were determined in cell supernatants by sandwich ELISA, using capture and detection antibodies (R&D Systems, Minneapolis, Minn.) according to the manufacturer's recommendations.
(§4) Inhibition (as percentage) was calculated using the following formula: % inhibition=(1−concentration of cytokines in sample/concentration of cytokines in positive control)×100. The positive control refers to stimulated samples, not treated with substances.

IL-1α = test: Inhibition of IL-1 production by stimulated human peripheral blood leukocytes in vitro; format: cell-based; details: Homo sapiens, Leukocyte, PBL, read-out: Percentage of inhibition of IL-1α production; for inhibition at 10 µM: compound 10 μM; for inhibition at 50 µM: compound 50 μM
IL-6 = test: Inhibition of IL-6 production by stimulated human peripheral blood leukocytes in vitro; format: cell-based; details: Homo sapiens, Leukocyte, PBL, read-out: Percentage of inhibition of IL-6 production; for inhibition at 10 µM: compound 10 μM; for inhibition at 50 µM: compound 50 μM
Experimental: as §1, §2, §3, §4

IL-8 = test: Inhibition of IL-8 production by stimulated human peripheral blood leukocytes in vitro; format: cell-based; details: Homo sapiens, Leukocyte, PBL, read-out: Percentage of inhibition of IL-8 production; for inhibition at 10 µM: compound 10 μM; for inhibition at 50 µM: compound 50 μM
Experimental: as §1, §2, §3, §4

A549 = test: MTT cytotoxicity assay on A549 cell line; format: cell-based; details: human, 24 h
Experimental: (§5) To determine whether the anti-inflammatory activity of the test compounds was due to observed inhibition of cytokine production and inhibition of proliferation in vitro, and was not a consequence of cellular cytotoxicity, measurement of succinate dehydrogenase activity in living cells was performed. Cells were cultured for 24 h in RPMI medium as described above at 37° C. in the presence of the test compounds at concentrations of 50 μM and 12.5 μM. MTT [3-(4,5-dimethylthiazole-2-yl)-2,5-diphenyl tetrazolium bromide] (Promega, USA), a detection reagent, was then added and the cultures were incubated for 0.5-2 h. The amount of MTT-Formazan produced was determined using a spectrophotometer at 490 nm (Mosmann, J. Imnunol. Methods, 1983, 65: 55-63). Percentage of viable cells was calculated using the following formula:
(§6) % viable cells=([…]OD490 treated cells/OD490 nontreated cells)×100

Hep G2 = test: MTT cytotoxicity assay on Hep G2 cell line; format: cell-based; details: human, 24 h
Experimental: as §5, §6

granulocytes = test: Inhibition of degranulation of granulocytes (elastase release); format: cell-based, human; details: Homo sapiens, compound 50 μM, read-out: Percentage of inhibition of degranulation of granulocytes
Experimental: (§7) Granulocytes were obtained from heparinized whole blood using density gradient centrifugation. Erythrocytes were sedimented on 3% dextran T-500 (Amersham Pharmacia Biotech AB, Uppsala, Sweden). Leukocytes were centrifuged on Ficoll (Amersham Pharmacia Biotech AB, Uppsala, Sweden) for 35 min at 600 g at 20° C. The pellet of granulocytes was cleared from remaining erythrocytes by a brief hypotonic lysis.
1×10^6 granulocytes, isolated as described above, were resuspended in RPMI-1640 medium (Institute of Immunology, Croatia), and were incubated with 10 or 50 μM of test compound together with cytochalasine B (5 μg/mL) for 2 h at 37° C. Degranulation then was induced by the addition of 0.1 μM fMLP (Sigma, USA) or 0.5 μM A23187 (Calbiochem, USA). The activity of free neutrophil elastase was determined with a chromogenic substrate specific for human neutrophil elastase, such as n-methoxysuccinyl-1-alanyl-1-alanyl-1-prolyl-lvalyl-p-niytoanlide (Sigma Chemical Company, St Louis, Mo., USA) Elastase activity, as a marker of primary granules, was assessed in supernatant using a spectrophotometer at an absorbance of 405 nm. Results are expressed as the percent of inhibition of degranulation in unstimulated cells, and in stimulated cells treated with fMLP or A23187.

human granulocytes = test: Oxidative burst inhibition assay on granulocytes (luminol); format: cell-based; details: Homo sapiens; for inhibition at 12.5 µM: compound 12.5 μM; for inhibition at 50 µM: compound 50 μM
Experimental: as §7
The effect of compounds on oxidative burst was investigated in vitro with oxidative burst assay in human granulocytes, isolated as described above. Assay was done in 96 well plate. Blood was obtained from healthy volunteers (Transfusion Center, Croatia) and human granulocytes were isolated by dextran sedimentation and ficoll extraction method, as described above. In each well 50000 isolated granulocytes were suspended in 100 μL of DMEM. Final concentrations of the tested compounds were 50 and 12.5 μM. Than, 50 μL of luminol (c=0.25 mg/mL) was added. Luminol as a detector of oxidative burst react with superoxide and light is produced as one of the reaction products. Subsequently, 50 μL of stimuli, phorbol-12-myristate acetate (PMA) (c=33 ng/mL) or Zymosan (c=120 μg/mL), were added.

[1] = PMA stimulated granulocytes, read-out: % inhibition of Oxidative burst PMA
[2] = Zymosan stimulated granulocytes, read-out: % inhibition of Oxidative burst Zymosan

`CC[C@H]1OC(=O)[C@H](C)[C@@H](O[C@H]2C[C@@](C)(OC)[C@@H](O)[C@H](C)O2)[C@H](C)[C@@H](O[C@@H]2O[C@H](C)C[C@H](N(C)C)[C@H]2O)[C@](C)(O)C[C@@H](C)CN(C(=O)NC(C)c2cccc3ccccc23)[C@H](C)[C@@H](O)[C@]1(C)O` (stereo partly shown) [Compound 12] showed an inhibition at 10 µM (TNF-α; LPS stimulated) of 28%, an inhibition at 50 µM (TNF-α; LPS stimulated) of 100% and an inhibition at 10 µM (TNF-α; zymosan stimulated) of 70%. The inhibition at 50 µM (TNF-α; zymosan stimulated) was 100%, the inhibition at 10 µM (IL-1α; LPS stimulated) was 52% and the inhibition at 50 µM (IL-1α; LPS stimulated) was 82%. The inhibition at 10 µM (IL-1α; zymosan stimulated) was 80%, the inhibition at 50 µM (IL-1α; zymosan stimulated) was 100% and the inhibition at 10 µM (IL-6; LPS stimulated) was 6%. For the same molecule, the inhibition at 50 µM (IL-6; LPS stimulated) was 100%, the inhibition at 10 µM (IL-6; zymosan stimulated) was 88% and the inhibition at 50 µM (IL-6; zymosan stimulated) was 100%. It also gave an inhibition at 10 µM (IL-8; LPS stimulated) of 15%, an inhibition at 50 µM (IL-8; LPS stimulated) of 100% and an inhibition at 10 µM (IL-8; zymosan stimulated) of 40%. The inhibition at 50 µM (IL-8; zymosan stimulated) was 100%, the “Percentage of viable cells after treatment” value (“Percentage of viable cells” below) (A549; 12.5 μM) was 94% and the “Percentage of viable cells” value (A549; 50 μM) was 72%. The “Percentage of viable cells” value (Hep G2; 12.5 μM) was 93% and the “Percentage of viable cells” value (Hep G2; 50 μM) was 8%.
With `CC[C@H]1OC(=O)[C@H](C)[C@@H](O[C@H]2C[C@@](C)(OC)[C@@H](O)[C@H](C)O2)[C@H](C)[C@@H](O[C@@H]2O[C@H](C)C[C@H](N(C)C)[C@H]2O)[C@](C)(O)C[C@@H](C)C(=O)[C@H](C)[C@@H](O)[C@]1(C)O` [Erythromycin, erythromycin] the inhibition at 50 µM (granulocytes; A23187 0.5 μM stimulated) was 0%, the inhibition at 50 µM (granulocytes; fMLP 0.1 μM stimulated) was 23% and the inhibition at 12.5 µM (human granulocytes; [1]) was 0%. For the same molecule, the inhibition at 50 µM (human granulocytes; [1]) was 0%, the inhibition at 12.5 µM (human granulocytes; [2]) was 6% and the inhibition at 50 µM (human granulocytes; [2]) was 41%.
For `CC[C@H]1OC(=O)[C@H](C)[C@@H](O[C@H]2C[C@@](C)(OC)[C@@H](O)[C@H](C)O2)[C@H](C)[C@@H](O[C@@H]2O[C@H](C)C[C@H](N(C)C)[C@H]2O)[C@](C)(O)C[C@@H](C)CN(C(=O)Nc2ccc(C(F)(F)F)cc2)[C@H](C)[C@@H](O)[C@]1(C)O` [Compound 9], the inhibition at 10 µM (TNF-α; LPS stimulated) was 23%, the inhibition at 50 µM (TNF-α; LPS stimulated) was 100% and the inhibition at 10 µM (TNF-α; zymosan stimulated) was 39%. The inhibition at 50 µM (TNF-α; zymosan stimulated) was 100%, the inhibition at 10 µM (IL-1α; LPS stimulated) was 45% and the inhibition at 50 µM (IL-1α; LPS stimulated) was 43%. The inhibition at 10 µM (IL-1α; zymosan stimulated) was 65%, the inhibition at 50 µM (IL-1α; zymosan stimulated) was 22% and the inhibition at 10 µM (IL-6; LPS stimulated) was 0%. The inhibition at 50 µM (IL-6; LPS stimulated) was 100%, the inhibition at 10 µM (IL-6; zymosan stimulated) was 58% and the inhibition at 50 µM (IL-6; zymosan stimulated) was 100%. The inhibition at 10 µM (IL-8; LPS stimulated) was 0%, the inhibition at 50 µM (IL-8; LPS stimulated) was 100% and the inhibition at 10 µM (IL-8; zymosan stimulated) was 0%. For the same molecule, the inhibition at 50 µM (IL-8; zymosan stimulated) was 100%, the “Percentage of viable cells” value (A549; 12.5 μM) was 100% and the “Percentage of viable cells” value (A549; 50 μM) was 100%. For the same molecule, the “Percentage of viable cells” value (Hep G2; 12.5 μM) was 92% and the “Percentage of viable cells” value (Hep G2; 50 μM) was 21%.
